Measurements: US9517204B2, “Pharmaceutical composition for inhalation” (SHIONOGI & CO., LTD., priority 2011, dated 2016)
Like-named read-outs stand apart in the source and are kept apart here. Each block holds one molecule with its values, some of them ahead of it.

Legend:
[1] = Reactive oxygen species (ROS) assay, photoreactivity testing; type: physicochemical
Description: This assay was established to monitor the generation of ROS, such as singlet oxygen and superoxide, from photoirradiated chemicals, and ROS generation would be indicative of the photochemical reactivity of tested chemicals.
In contrast, 8-methoxypsoralen (MOP) is known as a phototoxic and photoreactive chemical. Although 8-MOP slightly exceeded pirfenidone in ROS generation, both chemicals were identified to be photoreactive, as shown in FIG. 3 (A). When such photoreactivity and photoirritability are taken into consideration, pirfenidone can be said to raise concerns about photostability.

Photostability testing = type: physicochemical; details: simulated sunlight (250 W/m^2)
Experimental: Here, in respirable formulation of pirfenidone, both liquid and dry powder formulations can be considered in theory. Then, to clarify the photochemical properties in more detail, photostability testing was carried out. […] In general, photosensitive chemicals in a solution state are far more prone to photodegradation than solid samples due to the high permeability of light and increased mobility of photochemically excited molecules and reactive species. From this, taken together with the result shown in FIG. 3 (B), dry powder formulation, rather than liquid formulation, is preferable as a respirable formulation of pirfenidone.

skin = test: Phototoxic reaction in oral administration of pirfenidone (skin color, color difference meter); type: in vivo, rats; details: for change of skin color compared to the control group: black light irradiation
Experimental: Hair of rats were carefully shaved by hair clipper, and pirfenidone was administered orally to the rats (160 mg/kg or 30 mg/kg), and the rats were irradiated with a black light. Colors of the skin before and after the light irradiation were evaluated with a color difference meter.

[2] = Pharmacokinetics (1): plasma and tissues after oral and intratracheal administration; type: in vivo, rats; details: for Cmax / MRT / half-life / AUC(0-inf): rat
Experimental: However, the possibility of risk reduction of photodermatosis is not clear. In general, since drug-induced photodermatosis appear in the skin and eyes, the specific distribution of drug molecules in the skin and/or eyes could be a key consideration for evaluating the photodermatosis risk. Then, in order to verify the photosafety of the formulation 1, a pharmacokinetic study was undertaken after intratracheal administration of the formulation 1 at a pharmacologically effective dose (1 mg/kg). Additionally, since in the oral administration, both pharmaceutically effective and phototoxic dose (160 mg/kg) and pharmaceutically non-effective and non-phototoxic dose (30 mg/kg) are known, pharmacokinetic parameters were obtained after oral administration at both doses. Concentration-time curves of pirfenidone in the plasma, skin, lung, and eyes were obtained by UPLC/ESI-MS analysis after intratracheal and oral administrations. After oral administration of pirfenidone, plasma and lung concentrations of pirfenidone immediately reached the Cmax within 5 min and these concentrations decreased steadily with half lives of ca. 0.3-0.8 h.

[3] = Pharmacokinetics 2: transmigration of pirfenidone to tissue after single-dose administration; set-up: species or system rats; details: rat, in vivo, po, 160 mg/kg
Experimental: Similarly to Example 5, single-dose administrations of pirfenidone orally and the formulation 1 by inhalation were performed in rats, and the amount of transmigration of pirfenidone to each tissue was monitored by UPLC/ESI-MS. When compared in dose (160 mg/kg) having an anti-inflammatory activity, while the amount of skin-transmigration of pirfenidone in 1 hour after administration was about 50 ng/g-tissue via inhalation (1 mg/kg), the amount via oral administration (160 mg/kg) was about 20 μg/g-tissue. From this, while the amount of medication in inhalation is 1/160 in the case of oral administration, the amount of skin transmigration in inhalation decreases to 1/400 of oral formulation. […] Thus, the respirable formulation of the present invention has an excellent effect.

[4] = Pharmacokinetics (3): skin transmigration in repeated-dose administrations; type: in vivo
Experimental: Results of having monitored the amount of skin transmigration of pirfenidone in repeated-dose administrations by oral and inhalation are shown in FIG. 8. Although a temporary elevation of the pirfenidone concentration in the skin was observed by pirfenidone oral administration (30, 160 mg/kg) also in repeated-dose administrations in every 12 hours, the elevation disappeared in about 6 hours after administration. […] From this, the systemic side effect is considered to be avoidable even when the respirable formulation is used repeatedly.

[5] = patients who have taken the oral agent; cited from earlier work
[6] = 30 mg/kg oral, UV +, after treatment
[7] = 30 mg/kg oral, UV +, initial value
[8] = 30 mg/kg oral, UV −, after treatment
[9] = 30 mg/kg oral, UV −, initial value
[10] = 160 mg/kg oral, UV +, after treatment
[11] = 160 mg/kg oral, UV +, initial value
[12] = 160 mg/kg oral, UV −, after treatment
[13] = 160 mg/kg oral, UV −, initial value

ROS generation (singlet oxygen, superoxide), photoreactivity [1]: no ability to generate ROS
SMILES: COc1cc(O)c(C(=O)c2ccccc2)cc1S(=O)(=O)O [Sulisobenzone, sulisobenzone]

SMILES: COc1c2occc2cc2ccc(=O)oc12 [Formulation 8-MOP, 8-methoxypsoralen]
ROS generation (singlet oxygen, superoxide), photoreactivity ([1]; exposed to simulated sunlight (250 W/m^2)): photoreactive

ROS generation (singlet oxygen, superoxide), photoreactivity [1]: photoreactive | degradation (Photostability testing; powder): no significant degradation | apparent first-order degradation rate (Photostability testing; solution): 0.31 ± 0.03 h⁻¹ | AUC0→∞ ([2]; eyes, rats, 30 mg/kg, p.o.): 8.33 ± 0.39 h · μg/g tissue | AUC0→∞ ([2]; eyes, rats, 160 mg/kg, p.o.): 58.8 ± 1.3 h · μg/g tissue | AUC0→∞ ([2]; lung, rats, 30 mg/kg, p.o.): 6.45 ± 0.43 h · μg/g tissue | AUC0→∞ ([2]; lung, rats, 160 mg/kg, p.o.): 52.1 ± 1.0 h · μg/g tissue | Cmax ([2]; po, eyes, rats, 30 mg/kg): 3950 ± 300 ng/g | MRT ([2]; po, eyes, rats, 30 mg/kg): 1.06 ± 0.13 h | half-life ([2]; po, eyes, rats, 30 mg/kg, p.o., read-out: t1/2 (converted)): 0.668 ± 0.18 h | Cmax ([2]; po, eyes, rats, 160 mg/kg): 26000 ± 2600 ng/g | MRT ([2]; po, eyes, rats, 160 mg/kg): 1.93 ± 0.051 h | half-life ([2]; po, eyes, rats, 160 mg/kg, p.o., read-out: t1/2 (converted)): 1.06 ± 0.27 h | Cmax ([2]; po, lung, rats, 30 mg/kg): 6460 ± 690 ng/g | MRT ([2]; po, lung, rats, 30 mg/kg): 0.787 ± 0.16 h | half-life ([2]; po, lung, rats, 30 mg/kg, p.o., read-out: t1/2 (converted)): 0.799 ± 0.24 h | Cmax ([2]; po, lung, rats, 160 mg/kg): 37600 ± 5700 ng/g | MRT ([2]; po, lung, rats, 160 mg/kg): 1.32 ± 0.041 h | half-life ([2]; po, lung, rats, 160 mg/kg, p.o., read-out: t1/2 (converted)): 0.766 ± 0.16 h | AUC(0-inf) ([2]; po, plasma, rats, 30 mg/kg): 14100 ± 920 ng·h/mL | Cmax ([2]; po, plasma, rats, 30 mg/kg): 19.7 ± 0.93 µg/mL | MRT ([2]; po, plasma, rats, 30 mg/kg): 0.667 ± 0.094 h | half-life ([2]; po, plasma, rats, 30 mg/kg, p.o., read-out: t1/2 (converted)): 0.33 ± 0.02 h | AUC(0-inf) ([2]; po, plasma, rats, 160 mg/kg): 152000 ± 10000 ng·h/mL | Cmax ([2]; po, plasma, rats, 160 mg/kg): 135 ± 11 µg/mL | MRT ([2]; po, plasma, rats, 160 mg/kg): 1.05 ± 0.075 h | half-life ([2]; po, plasma, rats, 160 mg/kg, p.o., read-out: t1/2 (converted)): 0.53 ± 0.03 h | Cmax ([2]; po, skin, rats, 30 mg/kg): 8160 ± 470 ng/g | MRT ([2]; po, skin, rats, 30 mg/kg): 1.14 ± 0.12 h | half-life ([2]; po, skin, rats, 30 mg/kg, p.o., read-out: t1/2 (converted)): 1.07 ± 0.28 h | Cmax ([2]; po, skin, rats, 160 mg/kg): 32900 ± 2600 ng/g | MRT ([2]; po, skin, rats, 160 mg/kg): 1.7 ± 0.043 h | half-life ([2]; po, skin, rats, 160 mg/kg, p.o., read-out: t1/2 (converted)): 1.06 ± 0.24 h | half-life ([2]; plasma and lung, oral administration (30 and 160 mg/kg), read-out: half lives): 0.3 to 0.8 h | half-life ([2]; skin and eye, after oral dosing, read-out: half-life of elimination phase): 0.7 to 1.1 h | time of reaching maximum levels ([2]; skin and eye, after oral dosing): ca. 0.5 h | AUC0→∞ ([2]; skin, rats, 30 mg/kg, p.o.): 11.5 ± 0.51 h · μg/g tissue | AUC0→∞ ([2]; skin, rats, 160 mg/kg, p.o.): 68.0 ± 1.4 h · μg/g tissue | concentration at 1 h [3]: ~20000 ng/g | time after administration at which the elevation of skin concentration disappeared ([4]; oral 30, 160 mg/kg, repeated-dose every 12 hours): about 6 hours | accumulation in skin ([4]; oral, repeated-dose administrations): did not show any accumulation trend
SMILES: Cc1ccc(=O)n(-c2ccccc2)c1 [pirfenidone]
ΔE, evaluation of color change (skin; 30 mg/kg oral, UV +): 2.40 ± 0.20 | L* (skin; [6]): 72.26 | a* (skin; [6]): 2.81 | b* (skin; [6]): 5.72 | L* (skin; [7]): 72.90 | a* (skin; [7]): 1.27 | b* (skin; [7]): 4.14 | ΔE, evaluation of color change (skin; 30 mg/kg oral, UV −): 1.47 ± 0.27 | L* (skin; [8]): 71.56 | a* (skin; [8]): 1.54 | b* (skin; [8]): −0.36 | L* (skin; [9]): 70.16 | a* (skin; [9]): 1.19 | b* (skin; [9]): −0.18 | change of skin color compared to the control group (skin; 30 mg/kg oral): significant change was not observed | photodermatosis (skin; 30 mg/kg orally to rat): photodermatosis was not caused | ΔE, evaluation of color change (skin; 160 mg/kg oral, UV +): 3.97 ± 0.59 | L* (skin; [10]): 72.35 | a* (skin; [10]): 2.06 | b* (skin; [10]): 9.17 | L* (skin; [11]): 71.05 | a* (skin; [11]): 0.89 | b* (skin; [11]): 5.67 | ΔE, evaluation of color change (skin; 160 mg/kg oral, UV −): 1.69 ± 0.24 | L* (skin; [12]): 71.04 | a* (skin; [12]): −1.04 | b* (skin; [12]): 4.88 | L* (skin; [13]): 70.59 | a* (skin; [13]): 0.09 | b* (skin; [13]): 3.67 | change of skin color compared to the control group (skin; 160 mg/kg oral): Change of skin color was intentionally observed | expression frequency of drug-induced photodermatosis [5]: about 60%
